# Source: PubChem BioAssay AID1259411 (Chemical Carcinogenesis Research Information System (CCRIS), 2018)
# Calls of active or inactive are those of the source. No rule for the calls is given here.
# System: rodent carcinogenicity bioassays, tumor incidence
# Assay: CCRIS carcinogenicity studies
# In short: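 NCI-built, expert-reviewed records of carcinogenicity and related test outcomes (mutagenicity, tumor promotion/inhibition) compiled from published and report sources, historical span 1985-2011, not updated.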
smiles,measurement,setting,value
Oc1ccc2c(c1)OCO2,carcinogen call,"Species: MOUSE, Strain/Sex: B6C3F1/FEMALE, Route: ORAL, Dose: 0, 2% IN DIET FOR 96 WK (STUDY DURATION: 96 WK), Tumor Site: Type of Lesion: FORESTOMACH: SQUAMOUS CELL CARCINOMA",active; positive
same,carcinogen call,"Species: MOUSE, Strain/Sex: B6C3F1/FEMALE, Route: ORAL, Dose: 0, 2% IN POWDERED BASAL DIET FOR 96 WK (STUDY DURATION: 96 WK), Tumor Site: Type of Lesion: FORESTOMACH: SQUAMOUS CELL CARCINOMA",active; positive
same,carcinogen call,"Species: MOUSE, Strain/Sex: B6C3F1/MALE, Route: ORAL, Dose: 0, 2% IN DIET FOR 96 WK (STUDY DURATION: 96 WK), Tumor Site: Type of Lesion: FORESTOMACH: SQUAMOUS CELL CARCINOMA",active; positive
same,carcinogen call,"Species: MOUSE, Strain/Sex: B6C3F1/MALE, Route: ORAL, Dose: 0, 2% IN POWDERED BASAL DIET FOR 96 WK (STUDY DURATION: 96 WK), Tumor Site: Type of Lesion: FORESTOMACH: SQUAMOUS CELL CARCINOMA",active; positive
same,carcinogen call,"Species: RAT, Strain/Sex: F344/FEMALE, Route: ORAL, Dose: 0, 2% IN DIET FOR 104 WK (STUDY DURATION: 104 WK)",inactive; negative
same,carcinogen call,"Species: RAT, Strain/Sex: F344/FEMALE, Route: ORAL, Dose: 0, 2% IN DIET FOR 104 WK (STUDY DURATION: 104 WK), Tumor Site: Type of Lesion: FORESTOMACH: PAPILLOMA",active; positive
same,carcinogen call,"Species: RAT, Strain/Sex: F344/FEMALE, Route: ORAL, Dose: 0, 2% IN POWDERED BASAL DIET FOR 104 WK (STUDY DURATION: 104 WK), Tumor Site: Type of Lesion: FORESTOMACH: PAPILLOMA",active; positive
same,carcinogen call,"Species: RAT, Strain/Sex: F344/MALE, Route: ORAL, Dose: 0, 0.4% IN DIET FOR DURATION OF STUDY (STUDY DURATION: 104 WK)",inactive; negative
same,carcinogen call,"Species: RAT, Strain/Sex: F344/MALE, Route: ORAL, Dose: 0, 2% IN DIET FOR 104 WK (STUDY DURATION: 104 WK), Tumor Site: Type of Lesion: FORESTOMACH: PAPILLOMA, SQUAMOUS CELL CARCINOMA",active; positive
same,carcinogen call,"Species: RAT, Strain/Sex: F344/MALE, Route: ORAL, Dose: 0, 2% IN DIET FOR 104 WK (STUDY DURATION: 104 WK), Tumor Site: Type of Lesion: FORESTOMACH: SQUAMOUS CELL CARCINOMA",active; positive
same,carcinogen call,"Species: RAT, Strain/Sex: F344/MALE, Route: ORAL, Dose: 0, 2% IN POWDERED BASAL DIET FOR 104 WK (STUDY DURATION: 104 WK), Tumor Site: Type of Lesion: FORESTOMACH: PAPILLOMA, SQUAMOUS CELL CARCINOMA",active; positive
OC1c2cc3c4c(ccc5cccc(c54)C3)c2C2OC2C1O (configuration not stated),carcinogen call,"Species: MOUSE, Strain/Sex: ICR/FEMALE, Route: INTRAPERITONEAL, Dose: 0, 500 NMOL (TOTAL DOSE) ADMINISTERED IN DOSES OF 1/7, 2/7, AND 4/7 ON DAYS 1, 7, AND 15 OF LIFE, RESPECTIVELY (STUDY DU, Tumor Site: Type of Lesion: LUNG: TUMOR",active; positive
same,carcinogen call,"Species: MOUSE, Strain/Sex: ICR/MALE, Route: INTRAPERITONEAL, Dose: 0, 500 NMOL (TOTAL DOSE) ADMINISTERED IN DOSES OF 1/7, 2/7, AND 4/7 ON DAYS 1, 7 AND 15 OF LIFE , RESPECTIVELY (STUDY DU, Tumor Site: Type of Lesion: LUNG: TUMOR, LIVER: TUMOR",active; positive
CNc1ccc(N)cc1,carcinogen call,"Species: MOUSE, Strain/Sex: B6C3F1/MALE, Route: INTRAPERITONEAL, Dose: 0, 0.15 UMOL/G ONCE IN SODIUM ACETATE BUFFER (STUDY DURATION: 10 MO)",inactive; negative
CN(C)c1ccccc1,carcinogen call,"Species: MOUSE, Strain/Sex: B6C3F1/FEMALE, Route: GAVAGE, Dose: 0, 15, 30 MG/KG IN CORN OIL FOR 103 WK (STUDY DURATION: 105 WK), Dose: 0, 15, 30 MG/KG IN CORN OIL FOR 103 WK (STUDY DURATION: 105 WK), Tumor Site: Type of Lesion: FORESTOMACH: SQUAMOUS CELL PAPILLOMA",equivocal
same,carcinogen call,"Species: MOUSE, Strain/Sex: B6C3F1/MALE, Route: GAVAGE, Dose: 0, 15, 30 MG/KG IN CORN OIL FOR 103 WK (STUDY DURATION: 105 WK), Dose: 0, 15, 30 MG/KG IN CORN OIL FOR 103 WK (STUDY DURATION: 105 WK)",inactive; negative
same,carcinogen call,"Species: RAT, Strain/Sex: F344/FEMALE, Route: GAVAGE, Dose: 0, 3, 30 MG/KG IN CORN OIL 5 D/WK FOR 103 WK (STUDY DURATION: 105 WK), Dose: 0, 3, 30 MG/KG IN CORN OIL 5 D/WK FOR 103 WK (STUDY DURATION: 105 WK)",inactive; negative
same,carcinogen call,"Species: RAT, Strain/Sex: F344/MALE, Route: GAVAGE, Dose: 0, 3, 30 MG/KG IN CORN OIL 5 D/WK FOR 103 WK (STUDY DURATION: 105 WK), Dose: 0, 3, 30 MG/KG IN CORN OIL 5 D/WK FOR 103 WK (STUDY DURATION: 105 WK), Tumor Site: Type of Lesion: SPLEEN: SARCOMA, SARCOMA OR OSTEOSARCOMA",active; positive
CC1CN(N=O)C(=O)NC1=O (configuration not stated),carcinogen call,"Species: RAT, Strain/Sex: MRC-WISTAR/FEMALE, Route: ORAL, Dose: 0, 10 G TOTAL DOSE IN CITRATE BUFFER IN DRINKING WATER 5D/WK FOR 12 MO (STUDY DURATION: 2 YR)",inactive; negative
same,carcinogen call,"Species: RAT, Strain/Sex: MRC-WISTAR/MALE, Route: ORAL, Dose: 0, 1 G TOTAL DOSE IN CITRATE BUFFER IN DRINKING WATER 5D/WK FOR 12 MO (STUDY DURATION: 2 YR)",inactive; negative
CNC(=O)Oc1ccccc1OC(C)C,carcinogen call,"Species: MOUSE, Strain/Sex: SWISS/FEMALE, Route: DERMAL, Dose: 0, 100 MG/KG BW IN 100 µL ACETONE 3/WK FOR 52 WK (STUDY DURATION: 52 WK)",inactive; negative
same,carcinogen call,"Species: MOUSE, Strain/Sex: SWISS/MALE, Route: DERMAL, Dose: 0, 100 MG/KG BW IN 100 µL ACETONE 3/WK FOR 52 WK (STUDY DURATION: 52 WK)",inactive; negative
NC(N)=S,carcinogen call,"Species: RAT, Route: ORAL, Tumor Site: Type of Lesion: LIVER, THYROID GLAND, EAR (ZYMBAL GLAND), Tumor Site: Type of Lesion: LIVER, THYROID GLAND, EAR (ZYMBAL GLAND)",active; positive
COc1ccccc1N,carcinogen call,"Species: MOUSE, Strain/Sex: B6C3F1/FEMALE, Route: ORAL, Dose: 0, 2500, 5000 PPM IN DIET FOR 103 WK (STUDY DURATION: 105 WK), Dose: 0, 2500, 5000 PPM IN DIET FOR 103 WK (STUDY DURATION: 105 WK), Tumor Site: Type of Lesion: URINARY BLADDER: TRANSITIONAL CELL CARCINOMA, TRANSITIONAL CELL PAPILLOMA OR CARCINOMA",active; positive
same,carcinogen call,"Species: MOUSE, Strain/Sex: B6C3F1/MALE, Route: ORAL, Dose: 0, 2500, 5000 PPM IN DIET FOR 103 WK (STUDY DURATION: 104-105 WK), Dose: 0, 2500, 5000 PPM IN DIET FOR 103 WK (STUDY DURATION: 104-105 WK), Tumor Site: Type of Lesion: URINARY BLADDER: TRANSITIONAL CELL CARCINOMA, TRANSITIONAL CELL PAPILLOMA OR CARCINOMA",active; positive
same,carcinogen call,"Species: RAT, Strain/Sex: F344/FEMALE, Route: ORAL, Dose: 0, 5000, 10000 PPM IN DIET FOR 83-103 WK (STUDY DURATION: 83-107 WK), Dose: 0, 5000, 10000 PPM IN DIET FOR 83-103 WK (STUDY DURATION: 83-107 WK), Tumor Site: Type of Lesion: URINARY BLADDER: TRANSITIONAL CELL CARCINOMA, TRANSITIONAL CELL PAPILLOMA OR CARCINOMA",active; positive
same,carcinogen call,"Species: RAT, Strain/Sex: F344/MALE, Route: ORAL, Dose: 0, 5000, 10000 PPM IN DIET FOR 88-103 WK (STUDY DURATION: 88-106 WK), Dose: 0, 5000, 10000 PPM IN DIET FOR 88-103 WK (STUDY DURATION: 88-106 WK), Tumor Site: Type of Lesion: KIDNEY OR KIDNEY (PELVIS): TRANSITIONAL CELL CARCINOMA, URINARY BLADDER: TRANSITIONAL CELL CARCINOMA, TRANSITIONAL CELL",active; positive
